Assay results published in patent publication US11254986B2, “Gene signature for immune therapies in cancer” (ALMAC DIAGNOSTICS LIMITED, priority 2015, dated 2022).

How the values were obtained:
[1] = system: HCC1937 parental and HCC1937-BR cells; assay: Cell viability assay (CellTitre-Glo), determination of cisplatin sensitivity; format: cell-based; conditions: HCC1937 BRCA1 mutant cell-line relative to BRCA1 corrected cell-line (HCC1937-BR); FIG. 8D
Description: For measurement of sensitivity to cisplatin, exponentially growing cells were seeded into 96-well plates. […] Cells were incubated in the presence of drug for 96 hours following which time the viability of the cells was assessed using the Promega CellTitre-Glo luminescent cell viability assay. The sensitivity of the cells was calculated as the percentage of vehicle (DMSO) control.

[2] = system: HeLa, HCC1937 EV and MDA-MB-436 EV cells; assay: Cell cycle analysis (propidium iodide, flow cytometry); format: cell-based; conditions: HeLa, HCC1937 EV and MDA-MB-436 EV cells; IC-50 doses; FIG. 14
Description: For analysis of effects of ATM, ATR and DNAPK on cytokine expression, cells were seeded in six well plates at ˜60% confluency. Following incubation overnight, small molecule inhibitors of ATM (Ku60019, Selleck Chem) at a dose of 1 μm, ATR (ETP46464, Selleck Chem) at a dose of 5 μm and DNAPK (Nu7441, Selleck Chem) at a dose of 5 μm were added. At 24 hours, RNA and protein samples were obtained for analysis. For analysis of the effects of DNA damaging agents and paclitaxel on cytokine expression, cells were seeded in six well plates at ˜60% confluency. Following incubation overnight, IC50 doses of Cisplatin and Paclitaxel (obtained from fresh Pharmacy stock) and Hydroxyurea (Sigma Aldrich) were added for 24 hours to 48 hours. At the appropriate timepoint, RNA and protein samples were obtained for analysis.
Cells were trypsinised and fixed in 70% ethanol, incubated with RNase A and propidium iodide (P1) and analysed using a BD FACSCalibur™ (BD Biosciences, CA, USA). Data was analysed using Flow Jo software to perform cell cycle analysis.

Structure (SMILES): N.N.[Cl][Pt][Cl] [cisplatin]
- sensitivity to cisplatin (cell viability) [1]: more sensitive
- cell cycle distribution [2]: increased proportion of cells in S phase

Structure (SMILES): NC(=O)NO [hydroxyurea, Hydroxyurea]
- cell cycle distribution [2]: increased proportion of cells in S phase
